Laboratory results taken from PubChem BioAssay (NCI).
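Dose response: 5 concentrations. Exposure: 48 h. Format: 96-well plates. Endpoint: linear interpolation; highest concentration if not reached. At the TGI there is no net growth.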

Legend:
Experiment in all cases: NCI tumour cell line growth inhibition, 48 h
[1] = tested on: HCT-15 colon
[2] = tested on: NCI-H226 lung
[3] = tested on: COLO 205 colon
[4] = tested on: OVCAR-5 ovarian
[5] = tested on: OVCAR-8 ovarian
[6] = tested on: UO-31 renal
[7] = tested on: UACC-62 melanoma
[8] = tested on: OVCAR-3 ovarian
[9] = tested on: DMS 273 small cell lung
[10] = tested on: MALME-3M melanoma
[11] = tested on: XF 498 CNS
[12] = tested on: SN12C renal
[13] = tested on: EKVX NSCLC
[14] = tested on: NCI-H23 lung
[15] = tested on: M14 melanoma
[16] = tested on: SNB-19 CNS
[17] = tested on: KM12 colon
[18] = tested on: SW-620 colon
[19] = tested on: RPMI-8226 leukemia
[20] = tested on: M19-MEL melanoma
[21] = tested on: NCI-H460 lung
[22] = tested on: RXF 393 renal
[23] = tested on: KM20L2 colon
[24] = tested on: OVCAR-4 ovarian
[25] = tested on: TK-10 renal
[26] = tested on: SNB-75 CNS
[27] = tested on: SNB-78 CNS
[28] = tested on: HOP-62 NSCLC
[29] = tested on: K-562 leukemia
[30] = tested on: SK-MEL-28 melanoma
[31] = tested on: LOX IMVI melanoma
[32] = tested on: SK-MEL-5 melanoma
[33] = tested on: SK-MEL-2 melanoma
[34] = tested on: MOLT-4 leukemia
[35] = tested on: SF-295 CNS
[36] = tested on: U251 CNS
[37] = tested on: DMS 114 small cell lung
[38] = tested on: HT29 colon
[39] = tested on: IGROV1 ovarian
[40] = tested on: ACHN renal
[41] = tested on: A549 NSCLC
[42] = tested on: SF-268 CNS
[43] = tested on: HCT-116 colon
[44] = tested on: LXFL 529 NSCLC
[45] = tested on: NCI-H522 lung
[46] = tested on: 786-0 renal
[47] = tested on: SF-539 CNS
[48] = tested on: UACC-257 melanoma
[49] = tested on: HL-60(TB) leukemia
[50] = tested on: SK-OV-3 ovarian
[51] = tested on: DLD-1 colon
[52] = tested on: CCRF-CEM leukemia
[53] = tested on: HCC-2998 colon
[54] = tested on: HOP-92 NSCLC
[55] = tested on: A498 renal
[56] = tested on: CAKI-1 renal
[57] = tested on: SR leukemia

COC(=O)[C@]12CSCN1C(=O)C(C(C)=O)=NN2C(=O)[C@](OC)(c1ccccc1)C(F)(F)F
TGI [1]: > 100 µM | TGI [2]: > 100 µM | TGI [3]: > 100 µM | TGI [4]: > 100 µM | TGI [5]: > 100 µM | TGI [6]: > 100 µM | TGI [7]: > 100 µM | TGI [8]: > 100 µM | TGI [9]: > 100 µM | TGI [10]: > 100 µM | TGI [11]: > 100 µM | TGI [12]: > 100 µM | TGI [13]: > 100 µM | TGI [14]: > 100 µM | TGI [15]: > 100 µM | TGI [16]: > 100 µM | TGI [17]: > 100 µM | TGI [18]: > 100 µM | TGI [19]: > 100 µM | TGI [20]: > 100 µM | TGI [21]: > 100 µM | TGI [22]: > 100 µM | TGI [23]: > 100 µM | TGI [24]: > 100 µM | TGI [25]: > 100 µM | TGI [26]: > 100 µM | TGI [27]: > 100 µM | TGI [28]: > 100 µM | TGI [29]: > 100 µM | TGI [30]: > 100 µM | TGI [31]: > 100 µM | TGI [32]: > 100 µM | TGI [33]: > 100 µM | TGI [34]: > 100 µM | TGI [35]: > 100 µM | TGI [36]: > 100 µM | TGI [37]: > 100 µM | TGI [38]: > 100 µM | TGI [39]: > 100 µM | TGI [40]: > 100 µM | TGI [41]: > 100 µM | TGI [42]: > 100 µM | TGI [43]: > 100 µM | TGI [44]: > 100 µM | TGI [45]: > 100 µM | TGI [46]: > 100 µM | TGI [47]: > 100 µM

CC(=O)c1c(P(=O)(OC(C)C)OC(C)C)nn(-c2ccc([N+](=O)[O-])cc2)c1C
TGI [1]: > 100 µM | TGI [3]: > 100 µM | TGI [48]: > 100 µM | TGI [4]: > 100 µM | TGI [49]: > 100 µM | TGI [5]: > 100 µM | TGI [50]: > 100 µM | TGI [6]: > 100 µM | TGI [7]: > 100 µM | TGI [8]: > 100 µM | TGI [51]: > 100 µM | TGI [9]: > 100 µM | TGI [10]: > 100 µM | TGI [52]: > 100 µM | TGI [53]: > 100 µM | TGI [11]: > 100 µM | TGI [12]: > 100 µM | TGI [13]: > 100 µM | TGI [14]: > 100 µM | TGI [15]: > 100 µM | TGI [16]: > 100 µM | TGI [17]: > 100 µM | TGI [18]: > 100 µM | TGI [19]: > 100 µM | TGI [20]: > 100 µM | TGI [54]: > 100 µM | TGI [21]: > 100 µM | TGI [23]: > 100 µM | TGI [24]: > 100 µM | TGI [25]: > 100 µM | TGI [27]: > 100 µM | TGI [28]: > 100 µM | TGI [29]: > 100 µM | TGI [30]: > 100 µM | TGI [32]: > 100 µM | TGI [33]: > 100 µM | TGI [34]: > 100 µM | TGI [35]: > 100 µM | TGI [36]: > 100 µM | TGI [37]: > 100 µM | TGI [38]: > 100 µM | TGI [39]: > 100 µM | TGI [40]: > 100 µM | TGI [55]: > 100 µM | TGI [41]: > 100 µM | TGI [42]: > 100 µM | TGI [43]: > 100 µM | TGI [44]: > 100 µM | TGI [45]: > 100 µM | TGI [56]: > 100 µM | TGI [57]: > 100 µM | TGI [47]: > 100 µM

O=C(CCN1CCCC1)CC(c1ccccc1)c1c(O)c2ccccc2oc1=O (configuration not stated)
TGI [1]: > 100 µM | TGI [2]: > 100 µM | TGI [3]: > 100 µM | TGI [48]: > 100 µM | TGI [49]: > 100 µM | TGI [5]: > 100 µM | TGI [50]: > 100 µM | TGI [6]: > 100 µM | TGI [7]: > 100 µM | TGI [8]: > 100 µM | TGI [51]: > 100 µM | TGI [9]: > 100 µM | TGI [10]: > 100 µM | TGI [52]: > 100 µM | TGI [53]: > 100 µM | TGI [11]: > 100 µM | TGI [12]: > 100 µM | TGI [13]: > 100 µM | TGI [14]: > 100 µM | TGI [15]: > 100 µM | TGI [16]: > 100 µM | TGI [17]: > 100 µM | TGI [18]: > 100 µM | TGI [19]: > 100 µM | TGI [20]: > 100 µM | TGI [54]: 94.8 µM | TGI [21]: > 100 µM | TGI [22]: > 100 µM | TGI [23]: > 100 µM | TGI [24]: > 100 µM | TGI [25]: > 100 µM | TGI [26]: > 100 µM | TGI [27]: > 100 µM | TGI [28]: > 100 µM | TGI [29]: > 100 µM | TGI [30]: > 100 µM | TGI [31]: > 100 µM | TGI [32]: > 100 µM | TGI [33]: > 100 µM | TGI [34]: > 100 µM | TGI [35]: > 100 µM | TGI [36]: > 100 µM | TGI [37]: > 100 µM | TGI [38]: > 100 µM | TGI [39]: > 100 µM | TGI [40]: > 100 µM | TGI [41]: > 100 µM | TGI [42]: > 100 µM | TGI [43]: > 100 µM | TGI [44]: > 100 µM | TGI [45]: > 100 µM | TGI [46]: > 100 µM | TGI [57]: > 100 µM
